{
  "source": "patent US20080026079A1",
  "about": "(priority 2006, published 2008)",
  "key": {"[1]": {"system": "canine intestinal inflammation", "assay": "Canine inflammatory bowel disease activity index (CIBDAI) around Adriamycin dosing", "assay_type": "in vivo, dog", "parameters": "key to CIBDAI C. Vomiting: 0 = none; 1 = mild (1 episode/week); 2 = moderate (2-3 episodes/week); 3 = severe (>3 episodes/week); key to CIBDAI A. Attitude/activity / CIBDAI B. Appetite / CIBDAI E. Stool frequency: 0 = normal; 1 = slightly decreased; 2 = moderately decreased; 3 = severely decreased", "protocol": "(§1) The criteria used for the scoring in the table is found at the bottom of the table. Dogs in the study were given a “palliative” Adriamycin dosage (30 mg/m2, IV every 14 days). Symptoms related to intestinal inflammation are expected in fewer than 10% of treated dogs."}, "fecal α-1PI": {"system": "fecal α-1PI", "assay": "Fecal alpha(1)-proteinase inhibitor ELISA following Adriamycin", "assay_type": "in vivo, dog", "protocol": "Fecal alpha(1)-proteinase inhibitor (α-1PI) clearance is a reliable, noninvasive marker for protein-losing enteropathy in animals and canines. Furthermore, the canine gut is a good model for the human gut, so results of testing on dogs can be considered relevant to humans. In this example, a number of dogs were tested. Fecal samples were collected daily for 3 days following each Adriamycin administration. An ELISA was used to measure α-1PI concentrations in fecal extracts.\nFecal samples were available for analysis following both chemotherapy treatments from 13 dogs."}, "[2]": {"system": "hepatic demethylation capacity", "details": "dog, in vivo", "procedure": "A ^13C-aminopyrine demethylation blood test was performed in 16 dogs before and after undergoing chemotherapy with doxorubicin for malignant neoplasia. A baseline blood sample of 1 ml was taken, followed by intravenous injection of 2 mg/kg ^13C-aminopyrine and collection of another 1 ml blood sample at 45 minutes after ^13C-aminopyrine administration. Blood samples were immediately placed into vacutainer tubes containing 2 ml of 6M hydrochloric acid and the percent dose of the ^13C administered as ^13C-aminopyrine was determined based on fractional mass spectrometry. […] A p-value <0.05 was considered statistically significant."}, "[3]": {"system": "dogs with malignant tumors", "details": "cited from earlier work"}, "[4]": {"system": "canine intestinal inflammation", "assay": "Canine inflammatory bowel disease activity index (CIBDAI) around Adriamycin dosing", "assay_type": "in vivo", "parameters": "key: 0 = normal; 1 = slightly decreased; 2 = moderately decreased; 3 = severely decreased", "details": "one line per dog", "protocol": "as §1"}, "[5]": {"system": "canine intestinal inflammation", "assay": "Canine inflammatory bowel disease activity index (CIBDAI) around Adriamycin dosing", "assay_type": "in vivo", "parameters": "key: 0 = normal; 1 = slightly soft faeces or faecal blood, mucus or both; 2 = very soft faeces; 3 = watery diarrhea", "details": "one line per dog", "protocol": "as §1"}, "[6]": {"system": "irinotecan-induced diarrhea", "details": "irinotecan weekly 125 mg/m^2; strict adherence to high-dose loperamide; fell from 56; cited from earlier work"}, "[7]": {"system": "chemotherapy-induced diarrhea", "details": "41 5-FU-treated patients; standard-dose loperamide; cited from earlier work"}, "[8]": {"system": "diarrhea following chemotherapy in dogs", "details": "dog, in vivo", "procedure": "32 dogs presented with diarrhea following the administration of a chemotherapy agent such as doxorubicin, cytoxan, vincristine, lomustine, and others for a minimum period of 48 hours. CASAD in 500 mg tables was given orally to the cancer-treated dogs four times a day (q.i.d.). Other pharmaceutical agents or medications, as shown below, were also administered to certain dogs according to Best Clinical Practices, using usual, customary dosing. To the extent permitted by scheduling, CASAD and the other medication were given concurrently."}, "[9]": {"system": "pregnant Sprague-Dawley rats", "assay": "Dietary clay toxicity and trace metal bioavailability in pregnant rats", "details": "rat, in vivo", "protocol": "In animal studies with calcium montmorillonite clay, no adverse effects from clay treatment, at levels up to 2.0% (w/w) in the diet, have been reported. In recent studies in rodents, calcium montmorillonite clay were evaluated for potential toxicity and trace metal bioavailability in pregnant Sprague-Dawley rats throughout the period of gestation following high level exposure in the diet (2.0% w/w). Clays were supplemented in the balanced diet of Sprague-Dawley rats during pregnancy at a level of 2.0% (w/w). Evaluations of toxicity were performed on gestation day 16 and included maternal body weights, maternal feed intakes, litter weights, in addition to embryonic resorptions. Liver and, kidneys, tibia, brain, uterus, pooled placental, and pooled embryonic mass were collected and weighed. Tissue were lyophilized and neutron activation analysis (NAA) was then performed. Elements considered by NAA included: Al, Br, Ca, Ce, Co, Cr, Cs, Cu, Dy, Eu, Fe, Hf, K, La, Lu, Mg, Mn, Na, Nd, Ni, Rb, S, Sb, Sc, Se, Sm, Sr, Ta, Th, Te, Th, Ti, Tl, U, V, Yb, Zn, and Zr. Inductively coupled plasma-mass spectroscopy further confined that Al was below detection limits (0.5 ppm) in the brain, indicating no significant bioavailability of this metal from clay interactions in the GI tract. […]"}},
  "note": "Several values for one entry are separate records, joined by “and”; a condition that tells them apart may be missing. Equal values may be shown once. Entries after “also recorded” stand apart in the source; their conditions may differ.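 Wherever m α-1PI - pd. 1 is given: unit µg per g of feces.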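 Wherever m α-1PI - pd. 2 is given: unit µg per g of feces.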",
  "data": [
    {"compound": "Cc1ncc([N+](=O)[O-])n1CCO", "note": "[Flagyl, metronidazole]", "values": [
      {"measurement": "time to resolution of diarrhea", "setting": "[1]; Dog 2, diarrhea started Day 21 after Adria 2", "value": "with Flagyl, resolved in 2 days"}
    ]},
    {"compound": "COc1cccc2c1C(=O)c1c(O)c3c(c(O)c1C2=O)C[C@@](O)(C(=O)CO)C[C@@H]3O[C@H]1C[C@H](N)[C@H](O)[C@H](C)O1", "note": "[doxorubicin]", "values": [
      {"measurement": "fecal α-1PI concentrations, comparison of the two treatments", "setting": "fecal α-1PI; 13 dogs", "value": "not significantly different"},
      {"measurement": "m α-1PI - pd. 1", "setting": "fecal α-1PI; one line per dog, fecal samples 3 days following first Adriamycin administration", "value": "0 micro g/g of feces (5×) and 9.38 micro g/g of feces and 1.38 micro g/g of feces and 2.83 micro g/g of feces and 0.7 micro g/g of feces and 4.2 micro g/g of feces and 6.85 micro g/g of feces and 0.47 micro g/g of feces and 13.23 micro g/g of feces"},
      {"measurement": "m α-1PI - pd. 2", "setting": "fecal α-1PI; one line per dog, fecal samples 3 days following second Adriamycin administration", "value": "21.29 micro g/g of feces and 0 micro g/g of feces (3×) and 3.76 micro g/g of feces and 1.34 micro g/g of feces and 1.7 micro g/g of feces and 0.85 micro g/g of feces and 0.53 micro g/g of feces and 14.26 micro g/g of feces and 4.57 micro g/g of feces and 1.83 micro g/g of feces and 1.3 micro g/g of feces"},
      {"measurement": "CIBDAI A. Attitude/activity", "setting": "[1]; Post Adria 1, 30 mg/m2 IV every 14 days, one line per dog", "value": "A.0 (11×) and A.1 (2×)"},
      {"measurement": "CIBDAI B. Appetite", "setting": "[1]; Post Adria 1, one line per dog", "value": "B.0 (11×) and B.2 (2×)"},
      {"measurement": "CIBDAI C. Vomiting", "setting": "[1]; Post Adria 1, one line per dog", "value": "C.1 (1 = mild (1 episode/week)) (2×) and C.0 (9×) and C.2 (2 = moderate (2-3 episodes/week)) (2×)"},
      {"measurement": "CIBDAI E. Stool frequency", "setting": "[1]; Post Adria 1, one line per dog", "value": "E.0 (11×) and E.2 (2 = moderately increased (4-5 times/day)) and E.1 (1 = slightly increased (2-3 times/day))"},
      {"measurement": "CIBDAI A. Attitude/activity", "setting": "[1]; Post Adria 2, one line per dog", "value": "A.0 (10×) and A.3 and A.2 and A.1"},
      {"measurement": "CIBDAI B. Appetite", "setting": "[1]; Post Adria 2, one line per dog", "value": "B.0 (9×) and B.2 (2×) and B.3 and B.1"},
      {"measurement": "CIBDAI C. Vomiting", "setting": "[1]; Post Adria 2, one line per dog", "value": "C.0 (11×) and C.1 (1 = mild (1 episode/week)) (2×)"},
      {"measurement": "CIBDAI E. Stool frequency", "setting": "[1]; Post Adria 2, one line per dog", "value": "E.2 (2 = moderately increased (4-5 times/day)) (2×) and E.0 (11×)"},
      {"measurement": "CIBDAI A. Attitude/activity", "setting": "[1]; Pre Adria 2, one line per dog", "value": "A.0"},
      {"measurement": "CIBDAI B. Appetite", "setting": "[1]; Pre Adria 2, one line per dog", "value": "B.0 (12×) and B.1"},
      {"measurement": "CIBDAI C. Vomiting", "setting": "[1]; Pre Adria 2, one line per dog", "value": "C.0"},
      {"measurement": "CIBDAI E. Stool frequency", "setting": "[1]; Pre Adria 2, one line per dog", "value": "E.0"},
      {"measurement": "CIBDAI F. Weight loss", "setting": "[1]; Pre Adria 2, one line per dog", "value": "F.0"},
      {"measurement": "observations noted per dog after Adriamycin", "setting": "[1]; notes under the dog's scores, listed as Adria", "value": "Day 21 - Lethargic for 1 week after; also recorded: Day 21 - Owner reported dumpty for 3 days post Adria #2; also recorded: Day 21 - Diarrhea started, treated; also recorded: Patient was euthanized 5 days after initial; also recorded: Day 7 - Diarrhea,; also recorded: Day 21 - Diarrhea for 3 days,; also recorded: Adria #2 delayed due to vomiting, diarrhea,"},
      {"measurement": "mean ±SD clearance at 45 minutes after 13C-aminopyrine administration", "setting": "[2]", "value": "0.09562±0.0074"},
      {"measurement": "dogs that died as a direct result of doxorubicin-induced toxicosis", "setting": "[3]; 185 dogs, 30 mg/m^2 iv once or twice at 21-day interval", "value": 7, "unit": "dogs"},
      {"measurement": "likelihood of toxicosis after second dose in dogs with signs after first dose", "setting": "[3]; dog, in vivo", "value": 17.2, "unit": "times"},
      {"measurement": "CIBDAI D. Stool consistency", "setting": "[4]; Post Adria 1", "value": "D.0"},
      {"measurement": "CIBDAI D. Stool consistency", "setting": "[4]; Post Adria 2", "value": "D.0"},
      {"measurement": "CIBDAI D. Stool consistency", "setting": "[4]; Pre Adria 2", "value": "D.0"},
      {"measurement": "CIBDAI D. Stool consistency", "setting": "[5]; Post Adria 1", "value": "D.3 and D.1 and D.2"},
      {"measurement": "CIBDAI D. Stool consistency", "setting": "[5]; Post Adria 2", "value": "D.2 and D.3"},
      {"measurement": "CIBDAI D. Stool consistency", "setting": "[5]; Pre Adria 2", "value": "D.1"}
    ]},
    {"compound": "CN(C)C(=O)C(CCN1CCC(O)(c2ccc(Cl)cc2)CC1)(c1ccccc1)c1ccccc1", "note": "[loperamide]", "values": [
      {"measurement": "prevalence of grade ¾ diarrhea", "setting": "[6]", "value": 9, "unit": "%"},
      {"measurement": "resolution of diarrhea by day three", "setting": "[7]", "value": 15, "unit": "%"}
    ]},
    {"compound": "C[C@@H](O)[C@@H]1NC(=O)[C@H](CCCCN)NC(=O)[C@@H](Cc2c[nH]c3ccccc23)NC(=O)[C@H](Cc2ccccc2)NC(=O)[C@@H](NC(=O)[C@H](N)Cc2ccccc2)CSSC[C@@H](C(=O)N[C@H](CO)[C@@H](C)O)NC1=O", "note": "[octreotide]", "values": [
      {"measurement": "resolution of diarrhea by day three", "setting": "[7]", "value": 90, "unit": "%"}
    ]},
    {"compound": "calcium aluminosilicate [CASAD]", "values": [
      {"measurement": "1 = interaction 0 = noninteraction", "setting": "[8]", "value": 0},
      {"measurement": "dogs with interaction", "setting": "[8]", "value": 0},
      {"measurement": "negative interactions (anorexia, vomiting, nausea, lethargy, anaphylaxis) with additional drugs", "setting": "[8]", "value": "No negative interactions"}
    ]},
    {"compound": "calcium montmorillonite clay", "values": [
      {"measurement": "Al in the brain (ICP-MS)", "setting": "[9]", "value": "< 0.5", "unit": "ppm"},
      {"measurement": "brain Rb", "setting": "[9]", "value": "decreased brain Rb"}
    ]}
  ]
}
